Where two headings read alike, the source gives them in different places.
Columns and labels:
Acute toxicity in mouse = details: in vivo, Mouse (ICR)
Acute toxicity in rat = details: in vivo, Rat (SD)
Acute toxicity in beagle = details: dog, in vivo, male, oral, * = maximum administration level
[1] = tested on: RAEB or RAEB-T patients (MDS); assay: Oral administration of the ubenimex capsule to RAEB or RAEB-T (MDS) patients, response observed; type: in vivo; design: key to Response: CR: complete remission; GR: good result
[2] = in vivo
aminopeptidase B = details: cf. U.S.P. No. 4,189,604; cited from earlier work
tumor = details: cf. Japanese Pat. Publication (A2) No. 9487/1985; cited from earlier work
[3] = background statement; cited from earlier work
[4] = Toxicity, general statement; details: acute toxicity table given for reference
[5] = patient 1 (RAEB-T), 30mg/day oral
[6] = patient 2 (RAEB), 30mg/day oral
[7] = patient 3 (RAEB), 30mg/day oral
[8] = patient 4 (RAEB), 30mg/day oral
[9] = patient 5 (RAEB), 30mg/day oral
[10] = patient 6 (RAEB), 30mg/day oral

Question: For `CC(C)C[C@H](NC(=O)[C@@H](O)[C@H](N)Cc1ccccc1)C(=O)O` [ubenimex, N-[(2S, 3R)-3-amono-2-hydroxy-4-phenylbutyryl]-(L)-leucine], which LD50 (Acute toxicity in mouse; ip, female, intraperitoneal) is on record?
Answer: 190 mg/kg

Question: What about the LD50 (Acute toxicity in mouse; ip, male, intraperitoneal) of the same compound?
Answer: 190 mg/kg

Question: What about the LD50 (Acute toxicity in mouse; po, female, * = maximum administration level) of the same compound?
Answer: > 4000 mg/kg

Question: What about the LD50 (Acute toxicity in mouse; po, male, * = maximum administration level) of the same compound?
Answer: > 4000 mg/kg

Question: And the LD50 (Acute toxicity in mouse; sc, female, subcutaneous)?
Answer: 1900 mg/kg

Question: What about the LD50 (Acute toxicity in mouse; sc, male, subcutaneous) of the same compound?
Answer: 1300 mg/kg

Question: What about the LD50 (Acute toxicity in rat; ip, first line, sex female, intraperitoneal) of the same compound?
Answer: 900 mg/kg

Question: What about the LD50 (Acute toxicity in rat; ip, second line, female, intraperitoneal) of the same compound?
Answer: 780 mg/kg

Question: What about the LD50 (Acute toxicity in rat; po, first line, sex female, * = maximum administration level) of the same compound?
Answer: > 2000 mg/kg

Question: What about the LD50 (Acute toxicity in rat; po, second line, female, * = maximum administration level) of the same compound?
Answer: > 2000 mg/kg

Question: What about the LD50 (Acute toxicity in rat; sc, first line, sex female, subcutaneous) of the same compound?
Answer: 1900 mg/kg

Question: What about the LD50 (Acute toxicity in rat; sc, second line, female, subcutaneous) of the same compound?
Answer: 2100 mg/kg

Question: What about the LD50 (Acute toxicity in beagle) of the same compound?
Answer: > 1200 mg/kg

Question: What about the “Effectiveness as a remedy for MDS” value ([1]; 30mg/day oral) of the same compound?
Answer: highly effective

Question: What about the “RAEB cases with complete remission” value ([1]; among six effective cases) of the same compound?
Answer: three

Question: And the “RAEB cases with good responses” value ([1]; among six effective cases)?
Answer: two

Question: What about the “RAEB-T cases with complete remission” value ([1]; among six effective cases) of the same compound?
Answer: one

Question: What about the Effect on cytopenia ([1]; anemia, thrombocytopenia and neutropenia) of the same compound?
Answer: improve cytopenia

Question: What about the “Amount of transfusion to the patients” value ([1]; human, in vivo) of the same compound?
Answer: reduced or sometimes become unnecessary

Question: What about the “Effect on excess blast” value ([1]; human, in vivo) of the same compound?
Answer: reduce excess blast

Question: And the Effect on myelodysplasia ([1]; human, in vivo)?
Answer: improve myelodysplasia

Question: What about the “Patients with good results” value ([1]; of seven RAEB or RAEB-T patients, 30mg/day oral) of the same compound?
Answer: six

Question: And the Days till response [1, 5]?
Answer: 34 days

Question: What about the Response [1, 5] of the same compound?
Answer: CR

Question: And the “Peripheral blood Granulocytes No.” value ([1]; patient 1 (RAEB-T), 30mg/day oral, after treatment (BT 1.11))?
Answer: 2.94e+09 L⁻¹

Question: And the “Peripheral blood Hemoglobin” value ([1]; patient 1 (RAEB-T), 30mg/day oral, after treatment (BT 10.5))?
Answer: 13.6 g/dL

Question: And the “Bone marrow Blast” value ([1]; patient 1 (RAEB-T), 30mg/day oral, after treatment (BT 22.8))?
Answer: 3.2%

Question: What about the “Peripheral blood Platelets” value ([1]; patient 1 (RAEB-T), 30mg/day oral, after treatment (BT 350)) of the same compound?
Answer: 3.72e+11 L⁻¹

Question: And the Duration of response ([1]; patient 1 (RAEB-T), 30mg/day oral, observation continued)?
Answer: 8 week

Question: And the Days till response [1, 6]?
Answer: 28 days

Question: And the Response [1, 6]?
Answer: CR

Question: What about the “Peripheral blood Granulocytes No.” value ([1]; patient 2 (RAEB), 30mg/day oral, after treatment (BT 0.62)) of the same compound?
Answer: 2.44e+09 L⁻¹

Question: And the “Peripheral blood Hemoglobin” value ([1]; patient 2 (RAEB), 30mg/day oral, after treatment (BT 7.9))?
Answer: 14.4 g/dL

Question: And the “Bone marrow Blast” value ([1]; patient 2 (RAEB), 30mg/day oral, after treatment (BT 13.2))?
Answer: 5.2%

Question: What about the “Peripheral blood Platelets” value ([1]; patient 2 (RAEB), 30mg/day oral, after treatment (BT 81)) of the same compound?
Answer: 2.09e+11 L⁻¹

Question: And the Duration of response ([1]; patient 2 (RAEB), 30mg/day oral, ubenimex administration suspended)?
Answer: 11 week

Question: What about the Days till response [1, 7] of the same compound?
Answer: 97 days

Question: What about the Response [1, 7] of the same compound?
Answer: CR

Question: And the “Peripheral blood Granulocytes No.” value ([1]; patient 3 (RAEB), 30mg/day oral, after treatment (BT 0.99))?
Answer: 1.75e+09 L⁻¹

Question: And the “Bone marrow Blast” value ([1]; patient 3 (RAEB), 30mg/day oral, after treatment (BT 5.2))?
Answer: 0.4%

Question: What about the “Peripheral blood Hemoglobin” value ([1]; patient 3 (RAEB), 30mg/day oral, after treatment (BT 6.8)) of the same compound?
Answer: 12.3 g/dL

Question: What about the “Peripheral blood Platelets” value ([1]; patient 3 (RAEB), 30mg/day oral, after treatment (BT 12)) of the same compound?
Answer: 9.6e+10 L⁻¹

Question: What about the Duration of response ([1]; patient 3 (RAEB), 30mg/day oral, observation continued) of the same compound?
Answer: 21 week

Question: What about the Days till response [1, 8] of the same compound?
Answer: 175 days

Question: And the Response [1, 8]?
Answer: CR

Question: And the “Peripheral blood Granulocytes No.” value ([1]; patient 4 (RAEB), 30mg/day oral, after treatment (BT 2.92))?
Answer: 2.35e+09 L⁻¹

Question: And the “Bone marrow Blast” value ([1]; patient 4 (RAEB), 30mg/day oral, after treatment (BT 6.0))?
Answer: 2.0%

Question: And the “Peripheral blood Hemoglobin” value ([1]; patient 4 (RAEB), 30mg/day oral, after treatment (BT 7.6))?
Answer: 11.0 g/dL

Question: What about the “Peripheral blood Platelets” value ([1]; patient 4 (RAEB), 30mg/day oral, after treatment (BT 30)) of the same compound?
Answer: 8.2e+10 L⁻¹

Question: What about the Duration of response ([1]; patient 4 (RAEB), 30mg/day oral, observation continued) of the same compound?
Answer: 28 week

Question: What about the Days till response [1, 9] of the same compound?
Answer: 134 days

Question: What about the Response [1, 9] of the same compound?
Answer: GR

Question: What about the “Peripheral blood Granulocytes No.” value ([1]; patient 5 (RAEB), 30mg/day oral, after treatment (BT 1.22)) of the same compound?
Answer: 2.44e+09 L⁻¹

Question: And the “Peripheral blood Hemoglobin” value ([1]; patient 5 (RAEB), 30mg/day oral, after treatment (BT 8.5))?
Answer: 8.7 g/dL

Question: And the “Peripheral blood Platelets” value ([1]; patient 5 (RAEB), 30mg/day oral, after treatment (BT 21))?
Answer: 1.76e+11 L⁻¹

Question: And the Duration of response ([1]; patient 5 (RAEB), 30mg/day oral, observation continued)?
Answer: 32 week

Question: What about the Days till response [1, 10] of the same compound?
Answer: 67 days

Question: And the Response [1, 10]?
Answer: GR

Question: What about the “Peripheral blood Granulocytes No.” value ([1]; patient 6 (RAEB), 30mg/day oral, after treatment (BT 1.45)) of the same compound?
Answer: 2.02e+09 L⁻¹

Question: And the “Peripheral blood Hemoglobin” value ([1]; patient 6 (RAEB), 30mg/day oral, after treatment (BT 10.9))?
Answer: 12.2 g/dL

Question: What about the “Peripheral blood Platelets” value ([1]; patient 6 (RAEB), 30mg/day oral, after treatment (BT 42)) of the same compound?
Answer: 1.86e+11 L⁻¹

Question: And the Duration of response ([1]; patient 6 (RAEB), 30mg/day oral, observation continued)?
Answer: 20 week

Question: What about the “Accumulated toxicity upon repeated administration” value [2] of the same compound?
Answer: low accumulated toxicity

Question: What about the “Inhibition of aminopeptidase B” value (aminopeptidase B) of the same compound?
Answer: inhibits aminopeptidase B

Question: And the Antitumor activities (tumor)?
Answer: has a antitumor activities

Question: What about the Toxicity [3] of the same compound?
Answer: low toxicity

Question: What about the Toxicity [4] of the same compound?
Answer: low toxicity

— US4963588A, “Use of ubenimex for treating myelodysplastic syndrome” (priority 1989, dated 1990)
